Test results published in the supplement of paper PMC10307832.

Experiments:
Assay in all cases: relative viability (nuclei count vs DMSO), 5 days (fraction); higher = more cells survive
RERF-LC-KJ = system: RERF-LC-KJ
Summary of the method: (§1)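 After 5 days of treatment, lung cancer cells in 1536-well plates were fixed and stained in a single step (final 0.05% Triton X-100, 1% formaldehyde, 1 ug/ml Hoechst) and their nuclei counted on 4× images. Treatment had been applied by pin tool the day after seeding as one drug alone or as a fixed anchor-drug dose with five library-drug doses (not always all listed) in √10 steps. Relative viability is the nuclei count of treated wells divided by that of vehicle wells, and values are medians of duplicate plates.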

HCC-44 = system: HCC-44
Summary of the method: as §1

SW 1573 = system: SW 1573
Summary of the method: as §1

NCI-H3122 = system: NCI-H3122
Summary of the method: as §1

HCC-366 = system: HCC-366
Summary of the method: as §1

LOU-NH91 = system: LOU-NH91
Summary of the method: as §1

NCI-H2405 = system: NCI-H2405
Summary of the method: as §1

NCI-H2085 = system: NCI-H2085
Summary of the method: as §1

NCI-H1666 = system: NCI-H1666
Summary of the method: as §1

EMC-BAC-2 = system: EMC-BAC-2
Summary of the method: as §1

HCC-827 = system: HCC-827
Summary of the method: as §1

NCI-H23 = system: NCI-H23
Summary of the method: as §1

EPLC-272H = system: EPLC-272H
Summary of the method: as §1

NCI-H1975 = system: NCI-H1975
Summary of the method: as §1

NCI-H2126 = system: NCI-H2126
Summary of the method: as §1

SW 900 = system: SW 900
Summary of the method: as §1

LK-2 = system: LK-2
Summary of the method: as §1

LXF-289 = system: LXF-289
Summary of the method: as §1

LU99A = system: LU99A
Summary of the method: as §1

HCC-78 = system: HCC-78
Summary of the method: as §1

ChaGo-K-1 = system: ChaGo-K-1
Summary of the method: as §1

LCLC-103H = system: LCLC-103H
Summary of the method: as §1

SK-LU-1 = system: SK-LU-1
Summary of the method: as §1

C[C@@H]1CN(CC(=O)Nc2ccc3c(c2)Cc2cccc(-c4cc(=O)cc(N5CCOCC5)o4)c2S3)C[C@H](C)O1 + Nc1ncn([C@H]2C[C@H](O)[C@@H](CO)O2)c(=O)n1 [Decitabine] (partner 2 µM)
relative viability (RERF-LC-KJ; first compound 0.04 µM): 0.711
relative viability (RERF-LC-KJ; first compound 0.1265 µM): 0.61
relative viability (RERF-LC-KJ; first compound 0.4 µM): 0.678
relative viability (RERF-LC-KJ; first compound 4 µM): 0.556
relative viability (HCC-44; first compound 0.04 µM): 0.898
relative viability (HCC-44; first compound 0.1265 µM): 0.93
relative viability (HCC-44; first compound 0.4 µM): 0.972
relative viability (HCC-44; first compound 4 µM): 0.953
relative viability (SW 1573; first compound 0.04 µM): 0.572
relative viability (SW 1573; first compound 0.1265 µM): 0.56
relative viability (SW 1573; first compound 0.4 µM): 0.483
relative viability (SW 1573; first compound 4 µM): 0.615
relative viability (NCI-H3122; first compound 0.04 µM): 0.423
relative viability (NCI-H3122; first compound 0.1265 µM): 0.396
relative viability (NCI-H3122; first compound 0.4 µM): 0.42
relative viability (NCI-H3122; first compound 4 µM): 0.436
relative viability (HCC-366; first compound 0.04 µM): 0.347
relative viability (HCC-366; first compound 0.1265 µM): 0.348
relative viability (HCC-366; first compound 0.4 µM): 0.326
relative viability (HCC-366; first compound 4 µM): 0.326
relative viability (LOU-NH91; first compound 0.04 µM): 0.857
relative viability (LOU-NH91; first compound 0.1265 µM): 0.819
relative viability (LOU-NH91; first compound 0.4 µM): 0.81
relative viability (LOU-NH91; first compound 4 µM): 0.749
relative viability (NCI-H2405; first compound 0.04 µM): 0.878
relative viability (NCI-H2405; first compound 0.1265 µM): 0.814
relative viability (NCI-H2405; first compound 0.4 µM): 0.728
relative viability (NCI-H2405; first compound 4 µM): 0.803
relative viability (NCI-H2085; first compound 0.04 µM): 0.564
relative viability (NCI-H2085; first compound 0.1265 µM): 0.589
relative viability (NCI-H2085; first compound 0.4 µM): 0.605
relative viability (NCI-H2085; first compound 4 µM): 0.584
relative viability (NCI-H1666; first compound 0.04 µM): 0.744
relative viability (NCI-H1666; first compound 0.1265 µM): 0.743
relative viability (NCI-H1666; first compound 0.4 µM): 0.677
relative viability (NCI-H1666; first compound 4 µM): 0.669
relative viability (EMC-BAC-2; first compound 0.04 µM): 0.887
relative viability (EMC-BAC-2; first compound 0.1265 µM): 1.05
relative viability (EMC-BAC-2; first compound 0.4 µM): 0.948
relative viability (EMC-BAC-2; first compound 4 µM): 0.827
relative viability (HCC-827; first compound 0.04 µM): 0.355
relative viability (HCC-827; first compound 0.1265 µM): 0.362
relative viability (HCC-827; first compound 0.4 µM): 0.418
relative viability (HCC-827; first compound 4 µM): 0.382
relative viability (NCI-H23; first compound 0.04 µM): 0.347
relative viability (NCI-H23; first compound 0.1265 µM): 0.266
relative viability (NCI-H23; first compound 0.4 µM): 0.296
relative viability (NCI-H23; first compound 4 µM): 0.334
relative viability (EPLC-272H; first compound 0.04 µM): 0.386
relative viability (EPLC-272H; first compound 0.1265 µM): 0.384
relative viability (EPLC-272H; first compound 0.4 µM): 0.394
relative viability (EPLC-272H; first compound 4 µM): 0.364
relative viability (NCI-H1975; first compound 0.04 µM): 0.412
relative viability (NCI-H1975; first compound 0.1265 µM): 0.44
relative viability (NCI-H1975; first compound 0.4 µM): 0.364
relative viability (NCI-H1975; first compound 4 µM): 0.347
relative viability (NCI-H2126; first compound 0.04 µM): 0.543
relative viability (NCI-H2126; first compound 0.1265 µM): 0.567
relative viability (NCI-H2126; first compound 0.4 µM): 0.623
relative viability (NCI-H2126; first compound 4 µM): 0.593
relative viability (SW 900; first compound 0.04 µM): 0.453
relative viability (SW 900; first compound 0.1265 µM): 0.427
relative viability (SW 900; first compound 0.4 µM): 0.515
relative viability (SW 900; first compound 4 µM): 0.43
relative viability (LK-2; first compound 0.04 µM): 0.258
relative viability (LK-2; first compound 0.1265 µM): 0.279
relative viability (LK-2; first compound 0.4 µM): 0.198
relative viability (LK-2; first compound 4 µM): 0.257
relative viability (LXF-289; first compound 0.04 µM): 0.374
relative viability (LXF-289; first compound 0.1265 µM): 0.354
relative viability (LXF-289; first compound 0.4 µM): 0.419
relative viability (LXF-289; first compound 4 µM): 0.419
relative viability (LU99A; first compound 0.04 µM): 0.815
relative viability (LU99A; first compound 0.1265 µM): 0.928
relative viability (LU99A; first compound 0.4 µM): 0.859
relative viability (LU99A; first compound 4 µM): 0.851
relative viability (HCC-78; first compound 0.04 µM): 0.65
relative viability (HCC-78; first compound 0.1265 µM): 0.676
relative viability (HCC-78; first compound 0.4 µM): 0.688
relative viability (HCC-78; first compound 4 µM): 0.732
relative viability (ChaGo-K-1; first compound 0.04 µM): 0.498
relative viability (ChaGo-K-1; first compound 0.1265 µM): 0.531
relative viability (ChaGo-K-1; first compound 0.4 µM): 0.56
relative viability (ChaGo-K-1; first compound 4 µM): 0.455
relative viability (LCLC-103H; first compound 0.04 µM): 0.693
relative viability (LCLC-103H; first compound 0.1265 µM): 0.695
relative viability (LCLC-103H; first compound 0.4 µM): 0.697
relative viability (LCLC-103H; first compound 4 µM): 0.737
relative viability (SK-LU-1; first compound 0.04 µM): 0.693
relative viability (SK-LU-1; first compound 0.1265 µM): 0.719
relative viability (SK-LU-1; first compound 0.4 µM): 0.646
relative viability (SK-LU-1; first compound 4 µM): 0.59
